In test [1] the target is Insulin-like growth factor 1 receptor (Homo sapiens, UniProt P08069). Put plainly: Inhibition of IGF1R.
Another test addresses Insulin receptor (Homo sapiens, UniProt P06213). Nature of the test: Inhibition of IR.
The target in test [2] is T1, Tyrosine-protein kinase ITK/TSK (Homo sapiens, UniProt Q08881).
T1 sequence (Q08881 whole entry): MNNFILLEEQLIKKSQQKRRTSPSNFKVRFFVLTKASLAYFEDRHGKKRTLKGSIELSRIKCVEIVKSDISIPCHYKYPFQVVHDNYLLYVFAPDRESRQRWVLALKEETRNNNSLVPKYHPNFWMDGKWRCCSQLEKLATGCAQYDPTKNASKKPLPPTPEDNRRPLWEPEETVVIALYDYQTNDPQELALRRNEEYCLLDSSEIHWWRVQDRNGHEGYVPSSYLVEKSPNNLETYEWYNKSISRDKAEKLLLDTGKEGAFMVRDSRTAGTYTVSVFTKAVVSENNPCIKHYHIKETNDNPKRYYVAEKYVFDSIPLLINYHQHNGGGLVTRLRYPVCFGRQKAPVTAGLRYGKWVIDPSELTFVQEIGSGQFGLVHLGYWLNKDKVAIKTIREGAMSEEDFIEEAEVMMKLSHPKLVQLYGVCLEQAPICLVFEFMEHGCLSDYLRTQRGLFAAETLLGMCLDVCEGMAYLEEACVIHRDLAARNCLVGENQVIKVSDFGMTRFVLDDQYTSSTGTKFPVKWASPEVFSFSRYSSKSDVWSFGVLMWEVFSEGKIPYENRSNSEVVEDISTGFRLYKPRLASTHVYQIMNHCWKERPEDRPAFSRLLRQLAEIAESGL
Nature of the test: Inhibition of Itk.

Test [3] deals with Tyrosine-protein kinase SYK (Homo sapiens, UniProt P43405). Put plainly: Inhibition of Syk.
Test [4] addresses Vascular endothelial growth factor receptor 1 (Homo sapiens, UniProt P17948). Nature of the test: Inhibition of VEGFR1.
Test [5] addresses Dual specificity mitogen-activated protein kinase kinase 1 (Homo sapiens) (UniProt Q02750). Put plainly: Inhibition of MKK1 at 10 uM.
Test [6] addresses Mitogen-activated protein kinase 1 (Homo sapiens) (UniProt P28482). Put plainly: Inhibition of MAPK2/ERK2 at 10 uM.
Test [7] deals with Mitogen-activated protein kinase 14 (Homo sapiens) (UniProt Q16539). Nature of the test: Inhibition of p38alpha at 10 uM.
Mitogen-activated protein kinase 14 (Homo sapiens), sequence (Q16539 whole entry): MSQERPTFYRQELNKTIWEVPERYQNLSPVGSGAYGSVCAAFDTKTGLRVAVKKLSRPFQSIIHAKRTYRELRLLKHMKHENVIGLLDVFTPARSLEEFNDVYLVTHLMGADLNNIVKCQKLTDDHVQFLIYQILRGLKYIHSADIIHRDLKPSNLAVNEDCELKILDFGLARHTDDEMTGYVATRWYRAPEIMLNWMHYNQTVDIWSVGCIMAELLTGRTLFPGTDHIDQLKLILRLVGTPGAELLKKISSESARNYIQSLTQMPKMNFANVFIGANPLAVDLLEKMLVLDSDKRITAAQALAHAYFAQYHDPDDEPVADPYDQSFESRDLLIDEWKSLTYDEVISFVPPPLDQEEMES
Test [8] concerns the target T2, Mitogen-activated protein kinase 13 (Homo sapiens) (UniProt O15264).
T2 sequence (whole entry): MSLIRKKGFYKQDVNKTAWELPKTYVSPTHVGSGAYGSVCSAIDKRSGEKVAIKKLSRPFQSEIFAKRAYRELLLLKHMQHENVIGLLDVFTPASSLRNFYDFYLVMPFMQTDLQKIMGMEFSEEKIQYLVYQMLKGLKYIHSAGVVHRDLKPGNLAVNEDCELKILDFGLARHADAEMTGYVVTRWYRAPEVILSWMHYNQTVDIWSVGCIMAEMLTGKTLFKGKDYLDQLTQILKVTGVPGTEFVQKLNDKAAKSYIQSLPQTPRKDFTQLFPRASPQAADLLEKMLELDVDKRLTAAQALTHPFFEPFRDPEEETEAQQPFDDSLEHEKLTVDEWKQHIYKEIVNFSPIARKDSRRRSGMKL
Nature of the test: Inhibition of p38delta at 10 uM.

The target in test [9] is Ribosomal protein S6 kinase alpha-5 (Homo sapiens) (UniProt O75582). Nature of the test: Inhibition of MSK1 at 10 uM.
Test [10] concerns the target Glycogen synthase kinase-3 beta (Homo sapiens) (UniProt P49841). Put plainly: Inhibition of GSK3-beta at 10 uM.
A short description of test [11]: Inhibition of CK2 at 10 uM.
In test [12] the target is Epidermal growth factor receptor (Homo sapiens, UniProt P00533).

Calls of active or inactive are those of the source. The calls are words filed in the database; no cut-off is given here. Bounds are passed on as bounds.

Insulin-like growth factor 1 receptor, sequence (P08069 31-736 limits assumed): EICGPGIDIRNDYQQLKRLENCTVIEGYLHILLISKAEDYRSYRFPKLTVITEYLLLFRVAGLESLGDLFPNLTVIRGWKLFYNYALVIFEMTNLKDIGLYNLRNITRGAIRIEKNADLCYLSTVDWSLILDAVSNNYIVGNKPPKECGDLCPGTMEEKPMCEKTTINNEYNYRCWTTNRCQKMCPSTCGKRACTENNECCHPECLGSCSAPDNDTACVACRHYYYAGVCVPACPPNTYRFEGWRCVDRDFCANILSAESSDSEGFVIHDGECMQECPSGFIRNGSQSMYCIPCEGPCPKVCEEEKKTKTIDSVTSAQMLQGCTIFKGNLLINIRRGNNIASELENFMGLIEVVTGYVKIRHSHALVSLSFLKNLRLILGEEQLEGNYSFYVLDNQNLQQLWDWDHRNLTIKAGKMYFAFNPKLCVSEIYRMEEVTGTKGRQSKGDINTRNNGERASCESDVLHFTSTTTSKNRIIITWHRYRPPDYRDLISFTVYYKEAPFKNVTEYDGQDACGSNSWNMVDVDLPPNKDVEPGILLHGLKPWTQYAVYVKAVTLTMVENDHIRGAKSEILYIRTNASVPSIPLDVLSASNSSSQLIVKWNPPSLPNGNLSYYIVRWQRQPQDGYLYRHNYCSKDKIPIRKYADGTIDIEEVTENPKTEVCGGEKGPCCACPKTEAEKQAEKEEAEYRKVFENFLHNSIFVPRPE
Insulin-like growth factor 1 receptor, sequence (P08069 741-1367 limits assumed): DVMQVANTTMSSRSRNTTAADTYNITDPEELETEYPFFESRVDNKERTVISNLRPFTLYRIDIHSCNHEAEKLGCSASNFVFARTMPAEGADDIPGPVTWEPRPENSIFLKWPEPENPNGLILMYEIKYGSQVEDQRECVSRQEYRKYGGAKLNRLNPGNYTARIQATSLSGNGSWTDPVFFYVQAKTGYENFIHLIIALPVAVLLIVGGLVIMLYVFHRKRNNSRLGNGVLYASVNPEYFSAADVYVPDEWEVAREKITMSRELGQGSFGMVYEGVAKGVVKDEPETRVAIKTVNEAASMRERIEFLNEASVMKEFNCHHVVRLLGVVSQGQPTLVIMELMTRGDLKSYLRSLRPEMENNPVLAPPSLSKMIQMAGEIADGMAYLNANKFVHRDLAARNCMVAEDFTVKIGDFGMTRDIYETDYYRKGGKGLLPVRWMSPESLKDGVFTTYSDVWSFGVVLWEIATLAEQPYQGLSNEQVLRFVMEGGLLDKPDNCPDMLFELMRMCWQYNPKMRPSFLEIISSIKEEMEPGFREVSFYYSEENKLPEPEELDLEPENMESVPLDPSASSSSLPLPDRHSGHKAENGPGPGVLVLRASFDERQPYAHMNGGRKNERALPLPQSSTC
Insulin receptor, sequence (P06213 28-758 limits assumed): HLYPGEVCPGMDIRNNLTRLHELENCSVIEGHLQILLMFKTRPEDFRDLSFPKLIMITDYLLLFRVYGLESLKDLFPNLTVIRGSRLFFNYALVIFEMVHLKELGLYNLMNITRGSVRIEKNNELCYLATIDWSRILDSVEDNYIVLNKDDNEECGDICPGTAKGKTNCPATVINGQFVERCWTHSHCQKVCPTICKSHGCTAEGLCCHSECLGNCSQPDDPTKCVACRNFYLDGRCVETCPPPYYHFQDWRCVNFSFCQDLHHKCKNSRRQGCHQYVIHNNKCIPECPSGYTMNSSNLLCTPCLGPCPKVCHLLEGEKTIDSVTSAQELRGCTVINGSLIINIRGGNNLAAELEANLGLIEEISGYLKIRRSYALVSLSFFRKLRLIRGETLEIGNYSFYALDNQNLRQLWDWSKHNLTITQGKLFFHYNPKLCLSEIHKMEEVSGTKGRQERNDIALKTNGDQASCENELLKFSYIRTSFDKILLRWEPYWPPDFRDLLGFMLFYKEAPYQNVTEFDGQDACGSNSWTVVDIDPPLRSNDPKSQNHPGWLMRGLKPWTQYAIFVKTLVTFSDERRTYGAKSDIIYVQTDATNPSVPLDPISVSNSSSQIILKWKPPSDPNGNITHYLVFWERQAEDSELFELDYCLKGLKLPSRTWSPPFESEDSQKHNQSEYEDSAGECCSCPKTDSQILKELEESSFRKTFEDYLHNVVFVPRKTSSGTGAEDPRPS
Insulin receptor, sequence (P06213 763-1382 limits assumed): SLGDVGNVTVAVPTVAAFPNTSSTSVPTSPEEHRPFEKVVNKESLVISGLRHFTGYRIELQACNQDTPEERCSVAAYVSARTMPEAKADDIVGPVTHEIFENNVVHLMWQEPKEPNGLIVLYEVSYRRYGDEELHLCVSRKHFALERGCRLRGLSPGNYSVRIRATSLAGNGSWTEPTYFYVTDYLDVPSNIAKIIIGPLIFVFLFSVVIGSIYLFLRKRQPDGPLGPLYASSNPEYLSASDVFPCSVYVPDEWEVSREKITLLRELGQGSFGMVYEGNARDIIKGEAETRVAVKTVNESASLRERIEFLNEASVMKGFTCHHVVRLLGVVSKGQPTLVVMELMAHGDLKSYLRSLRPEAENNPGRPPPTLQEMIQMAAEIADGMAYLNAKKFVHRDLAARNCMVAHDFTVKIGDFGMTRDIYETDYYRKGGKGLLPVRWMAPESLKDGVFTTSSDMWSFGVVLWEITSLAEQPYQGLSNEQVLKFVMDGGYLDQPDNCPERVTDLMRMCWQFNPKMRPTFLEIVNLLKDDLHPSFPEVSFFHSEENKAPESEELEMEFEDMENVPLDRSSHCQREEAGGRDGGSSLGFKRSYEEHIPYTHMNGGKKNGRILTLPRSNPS
Dual specificity mitogen-activated protein kinase kinase 1 (Homo sapiens), sequence (Q02750 whole entry): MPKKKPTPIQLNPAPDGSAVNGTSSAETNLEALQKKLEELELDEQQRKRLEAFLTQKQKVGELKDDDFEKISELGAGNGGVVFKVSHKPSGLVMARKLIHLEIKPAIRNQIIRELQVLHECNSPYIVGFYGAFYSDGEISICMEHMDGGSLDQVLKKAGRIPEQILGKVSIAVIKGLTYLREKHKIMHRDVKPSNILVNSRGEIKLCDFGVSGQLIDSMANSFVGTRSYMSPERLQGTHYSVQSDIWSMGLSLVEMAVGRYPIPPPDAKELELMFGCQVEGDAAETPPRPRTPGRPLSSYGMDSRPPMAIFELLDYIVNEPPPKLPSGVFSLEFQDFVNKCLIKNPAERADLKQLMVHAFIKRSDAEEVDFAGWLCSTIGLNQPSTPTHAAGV
Vascular endothelial growth factor receptor 1, sequence (P17948 whole entry): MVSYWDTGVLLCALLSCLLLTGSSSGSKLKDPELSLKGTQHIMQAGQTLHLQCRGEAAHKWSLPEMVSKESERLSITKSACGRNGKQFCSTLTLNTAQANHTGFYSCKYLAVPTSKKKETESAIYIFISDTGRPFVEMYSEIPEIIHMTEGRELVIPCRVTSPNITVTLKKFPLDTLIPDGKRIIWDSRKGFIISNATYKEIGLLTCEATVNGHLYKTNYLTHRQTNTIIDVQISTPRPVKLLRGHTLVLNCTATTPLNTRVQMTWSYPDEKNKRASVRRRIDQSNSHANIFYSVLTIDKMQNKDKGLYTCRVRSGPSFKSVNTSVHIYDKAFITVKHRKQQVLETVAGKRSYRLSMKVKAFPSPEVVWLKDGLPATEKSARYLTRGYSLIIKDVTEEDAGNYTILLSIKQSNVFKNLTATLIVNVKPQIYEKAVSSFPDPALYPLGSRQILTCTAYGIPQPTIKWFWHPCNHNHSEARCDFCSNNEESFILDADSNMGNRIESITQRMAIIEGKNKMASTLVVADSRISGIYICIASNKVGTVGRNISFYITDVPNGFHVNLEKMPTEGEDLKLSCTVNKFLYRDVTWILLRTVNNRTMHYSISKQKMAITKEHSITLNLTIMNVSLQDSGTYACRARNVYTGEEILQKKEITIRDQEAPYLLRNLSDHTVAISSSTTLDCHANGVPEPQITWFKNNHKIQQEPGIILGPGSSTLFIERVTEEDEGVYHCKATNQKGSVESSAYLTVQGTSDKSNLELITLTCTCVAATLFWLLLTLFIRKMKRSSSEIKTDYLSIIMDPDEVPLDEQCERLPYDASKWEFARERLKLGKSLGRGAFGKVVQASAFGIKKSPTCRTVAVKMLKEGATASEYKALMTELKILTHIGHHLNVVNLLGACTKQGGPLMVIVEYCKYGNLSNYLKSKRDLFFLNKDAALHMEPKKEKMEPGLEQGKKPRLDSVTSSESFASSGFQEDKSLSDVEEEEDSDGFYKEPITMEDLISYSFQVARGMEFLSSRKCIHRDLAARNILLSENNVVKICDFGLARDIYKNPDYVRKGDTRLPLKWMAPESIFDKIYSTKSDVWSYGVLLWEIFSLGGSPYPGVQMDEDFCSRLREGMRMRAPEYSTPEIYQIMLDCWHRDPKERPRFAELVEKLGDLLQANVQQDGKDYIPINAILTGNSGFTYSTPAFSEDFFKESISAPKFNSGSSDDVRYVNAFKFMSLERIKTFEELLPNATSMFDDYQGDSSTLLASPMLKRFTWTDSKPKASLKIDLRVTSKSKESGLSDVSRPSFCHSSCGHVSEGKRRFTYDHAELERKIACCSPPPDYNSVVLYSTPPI

Take `CCCc1cc(N2CCC(N)CC2)nc2sc(C(N)=O)c(N)c12`: the IC50 (in test [1]; at Insulin receptor; in test [2]; in test [3]; in [4]) was more than 7 µM in each case. The result in test [5], in test [6], in test [7], in test [8], in test [9] and in [10] was inactive. Further, the outcome in test [11] was inactive.
`CCCc1cc(N2CCNCC2)nc2sc(C(N)=O)c(N)c12`: the IC50 in test [1], in test [2], in [3] and in [4] was more than 7 µM in each case. For the same compound, the result in test [5], in [6], in test [7], in test [8], in test [9] and in test [10] was inactive. In test [11], the outcome was inactive.
In the case of `CCCc1cc(N2CCCC(O)C2)nc2sc(C(N)=O)c(N)c12` (configuration not stated), the IC50 (in test [1]; against Insulin receptor; in test [2]; in [4]; in test [12]) was more than 7 µM each time. The result in [5], in test [6], in [7], in test [8], in test [9] and in [10] was inactive. Besides, the outcome in [11] was inactive.
Turning to `CCCc1cc(N2CCC(O)CC2)nc2sc(C(N)=O)c(N)c12`, the IC50 (in test [1]; at Insulin receptor; in test [2]; in [3]; in test [4]) was more than 7 µM throughout. The outcome in test [5], in [6], in test [7], in [8], in test [9] and in [10] was inactive. The result in [11] was inactive.

(Values after ChEMBL document CHEMBL1156029, “The discovery of thienopyridine analogues as potent IkappaB kinase beta inhibitors. Part II” (Bioorg Med Chem Lett, 2009).)
